Results reported in ChEMBL document CHEMBL3132769, “Fragment growing to retain or alter the selectivity of anchored kinase hinge-binding fragments” (Medchemcomm, 2014).

Legend:
[1] = target: Serine/threonine-protein kinase PAK 2 (Homo sapiens) (UniProt Q13177); test: Inhibition of human truncated PAK2 expressed in Escherichia coli cell assessed as substrate phosphorylation using fluorescence-labelled peptides as substrate at 0.06 uM after 90 mins by microfluidic peptide phosphorylation assay
[2] = target: Casein kinase I isoform delta (Homo sapiens) (UniProt P48730); test: Inhibition of human CK1D catalytic domain expressed in Escherichia coli cell assessed as substrate phosphorylation using fluorescence-labelled peptides as substrate at 0.06 uM after 90 mins by microfluidic peptide phosphorylation assay
Casein kinase I isoform delta (Homo sapiens), sequence (P48730 whole entry, looked up, the tested form may be a part, canonical isoform): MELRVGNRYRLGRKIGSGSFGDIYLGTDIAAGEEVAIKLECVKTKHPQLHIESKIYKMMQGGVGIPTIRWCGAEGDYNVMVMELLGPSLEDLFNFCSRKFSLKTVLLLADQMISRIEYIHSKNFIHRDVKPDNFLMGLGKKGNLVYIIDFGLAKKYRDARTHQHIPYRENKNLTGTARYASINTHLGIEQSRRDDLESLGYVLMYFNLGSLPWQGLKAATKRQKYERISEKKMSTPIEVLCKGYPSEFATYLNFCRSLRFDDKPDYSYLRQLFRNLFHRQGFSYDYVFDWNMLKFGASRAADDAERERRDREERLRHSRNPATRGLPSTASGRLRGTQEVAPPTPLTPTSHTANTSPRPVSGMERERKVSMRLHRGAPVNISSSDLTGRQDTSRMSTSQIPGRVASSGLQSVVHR

[3] = target: Serine/threonine-protein kinase pim-1 (Homo sapiens) (UniProt P11309); test: Inhibition of human full length PIM1 expressed in baculovirus assessed as substrate phosphorylation using fluorescence-labelled peptides as substrate at 0.06 uM after 90 mins by microfluidic peptide phosphorylation assay
Serine/threonine-protein kinase pim-1 (Homo sapiens), sequence (P11309 whole entry, looked up, the tested form may be a part): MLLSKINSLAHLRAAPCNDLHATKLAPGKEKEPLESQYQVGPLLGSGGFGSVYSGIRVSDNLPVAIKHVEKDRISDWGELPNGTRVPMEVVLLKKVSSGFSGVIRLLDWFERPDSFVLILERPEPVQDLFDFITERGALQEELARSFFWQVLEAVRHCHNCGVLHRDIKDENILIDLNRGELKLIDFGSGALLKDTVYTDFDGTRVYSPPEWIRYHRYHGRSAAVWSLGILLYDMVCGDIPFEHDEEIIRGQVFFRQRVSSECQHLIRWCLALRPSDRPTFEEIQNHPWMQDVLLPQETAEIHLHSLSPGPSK

[4] = target: Protein kinase C alpha type (Homo sapiens) (UniProt P17252); test: Inhibition of human truncated PKC alpha expressed in baculovirus assessed as substrate phosphorylation using fluorescence-labelled peptides as substrate at 0.06 uM after 90 mins by microfluidic peptide phosphorylation assay
[5] = target: Receptor-type tyrosine-protein kinase FLT3 (Homo sapiens) (UniProt P36888); test: Inhibition of human FLT3 catalytic domain expressed in baculovirus assessed as substrate phosphorylation using fluorescence-labelled peptides as substrate at 0.2 uM after 90 mins by microfluidic peptide phosphorylation assay
[6] = target: Ribosomal protein S6 kinase alpha-1 (Homo sapiens) (UniProt Q15418); test: Inhibition of human full length RSK1 expressed in baculovirus assessed as substrate phosphorylation using fluorescence-labelled peptides as substrate at 0.1 uM after 90 mins by microfluidic peptide phosphorylation assay
Ribosomal protein S6 kinase alpha-1 (Homo sapiens), sequence (Q15418 whole entry, the tested form may be a part): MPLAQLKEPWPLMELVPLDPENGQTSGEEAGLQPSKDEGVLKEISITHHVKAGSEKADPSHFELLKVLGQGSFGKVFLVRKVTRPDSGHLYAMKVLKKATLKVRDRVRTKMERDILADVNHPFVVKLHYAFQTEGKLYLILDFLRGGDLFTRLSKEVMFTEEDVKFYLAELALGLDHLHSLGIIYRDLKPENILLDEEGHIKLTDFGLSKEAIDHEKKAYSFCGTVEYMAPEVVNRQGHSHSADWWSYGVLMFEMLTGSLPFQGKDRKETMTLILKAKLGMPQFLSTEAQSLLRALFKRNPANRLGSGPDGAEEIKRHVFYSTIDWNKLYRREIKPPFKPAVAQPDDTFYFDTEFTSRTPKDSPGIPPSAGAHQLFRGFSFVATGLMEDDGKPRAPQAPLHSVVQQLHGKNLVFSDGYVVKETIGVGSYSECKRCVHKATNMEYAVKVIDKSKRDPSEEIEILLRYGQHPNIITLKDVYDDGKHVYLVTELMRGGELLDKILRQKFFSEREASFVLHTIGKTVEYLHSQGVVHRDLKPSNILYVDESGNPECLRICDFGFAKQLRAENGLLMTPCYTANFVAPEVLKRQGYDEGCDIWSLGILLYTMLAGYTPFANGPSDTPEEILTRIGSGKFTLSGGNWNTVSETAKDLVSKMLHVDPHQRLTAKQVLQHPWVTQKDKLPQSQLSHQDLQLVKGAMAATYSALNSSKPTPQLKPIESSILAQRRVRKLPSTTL

[7] = target: Protein kinase C alpha type (Homo sapiens) (UniProt P17252); test: Inhibition of human truncated PKC alpha expressed in baculovirus assessed as substrate phosphorylation using fluorescence-labelled peptides as substrate at 9 uM after 90 mins by microfluidic peptide phosphorylation assay
[8] = target: Glycogen synthase kinase-3 beta (Homo sapiens) (UniProt P49841); test: Inhibition of human full length GSK-3 beta expressed in baculovirus assessed as substrate phosphorylation using fluorescence-labelled peptides as substrate at 9 uM after 90 mins by microfluidic peptide phosphorylation assay
Glycogen synthase kinase-3 beta (Homo sapiens), sequence (P49841 whole entry, looked up, the tested form may be a part): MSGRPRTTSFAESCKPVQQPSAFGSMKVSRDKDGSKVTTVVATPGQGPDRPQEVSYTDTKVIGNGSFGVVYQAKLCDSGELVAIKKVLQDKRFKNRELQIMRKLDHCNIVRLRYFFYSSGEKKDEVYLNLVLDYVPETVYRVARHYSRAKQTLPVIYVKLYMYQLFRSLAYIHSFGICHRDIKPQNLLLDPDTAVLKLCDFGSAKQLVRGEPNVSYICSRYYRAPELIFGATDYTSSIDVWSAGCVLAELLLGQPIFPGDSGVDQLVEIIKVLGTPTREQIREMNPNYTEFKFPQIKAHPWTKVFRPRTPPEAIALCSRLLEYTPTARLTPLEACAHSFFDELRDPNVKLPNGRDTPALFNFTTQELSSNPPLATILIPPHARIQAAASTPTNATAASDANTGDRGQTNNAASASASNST

[9] = target: Calcium/calmodulin-dependent protein kinase type II subunit gamma (Homo sapiens) (UniProt Q13555); test: Inhibition of human CAMK2 gamma catalytic domain expressed in baculovirus assessed as substrate phosphorylation using fluorescence-labelled peptides as substrate at 70 uM after 90 mins by microfluidic peptide phosphorylation assay
[10] = target: Casein kinase I isoform delta (Homo sapiens) (UniProt P48730); test: Inhibition of human CK1D catalytic domain expressed in Escherichia coli cell assessed as substrate phosphorylation using fluorescence-labelled peptides as substrate at 70 uM after 90 mins by microfluidic peptide phosphorylation assay
[11] = target: T1, Testis-specific serine/threonine-protein kinase 1 (Homo sapiens) (UniProt Q9BXA7); test: Inhibition of human full length TSSK1 expressed in baculovirus assessed as substrate phosphorylation using fluorescence-labelled peptides as substrate at 95 uM after 90 mins by microfluidic peptide phosphorylation assay
T1 sequence (whole entry): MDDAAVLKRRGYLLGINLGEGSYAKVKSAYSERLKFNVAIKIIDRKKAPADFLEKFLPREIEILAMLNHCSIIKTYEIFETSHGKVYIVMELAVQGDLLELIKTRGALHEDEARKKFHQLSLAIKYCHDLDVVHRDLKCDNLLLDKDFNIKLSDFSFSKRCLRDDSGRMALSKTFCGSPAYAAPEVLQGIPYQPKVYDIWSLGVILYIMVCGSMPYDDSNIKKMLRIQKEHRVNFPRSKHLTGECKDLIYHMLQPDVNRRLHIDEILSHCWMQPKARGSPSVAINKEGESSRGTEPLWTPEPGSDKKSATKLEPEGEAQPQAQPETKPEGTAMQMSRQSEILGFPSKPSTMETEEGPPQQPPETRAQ

[12] = target: Ribosomal protein S6 kinase alpha-2 (Homo sapiens) (UniProt Q15349); test: Inhibition of human full length RSK3 expressed in baculovirus assessed as substrate phosphorylation using fluorescence-labelled peptides as substrate at 95 uM after 90 mins by microfluidic peptide phosphorylation assay
Ribosomal protein S6 kinase alpha-2 (Homo sapiens), sequence (Q15349 whole entry, the tested form may be a part): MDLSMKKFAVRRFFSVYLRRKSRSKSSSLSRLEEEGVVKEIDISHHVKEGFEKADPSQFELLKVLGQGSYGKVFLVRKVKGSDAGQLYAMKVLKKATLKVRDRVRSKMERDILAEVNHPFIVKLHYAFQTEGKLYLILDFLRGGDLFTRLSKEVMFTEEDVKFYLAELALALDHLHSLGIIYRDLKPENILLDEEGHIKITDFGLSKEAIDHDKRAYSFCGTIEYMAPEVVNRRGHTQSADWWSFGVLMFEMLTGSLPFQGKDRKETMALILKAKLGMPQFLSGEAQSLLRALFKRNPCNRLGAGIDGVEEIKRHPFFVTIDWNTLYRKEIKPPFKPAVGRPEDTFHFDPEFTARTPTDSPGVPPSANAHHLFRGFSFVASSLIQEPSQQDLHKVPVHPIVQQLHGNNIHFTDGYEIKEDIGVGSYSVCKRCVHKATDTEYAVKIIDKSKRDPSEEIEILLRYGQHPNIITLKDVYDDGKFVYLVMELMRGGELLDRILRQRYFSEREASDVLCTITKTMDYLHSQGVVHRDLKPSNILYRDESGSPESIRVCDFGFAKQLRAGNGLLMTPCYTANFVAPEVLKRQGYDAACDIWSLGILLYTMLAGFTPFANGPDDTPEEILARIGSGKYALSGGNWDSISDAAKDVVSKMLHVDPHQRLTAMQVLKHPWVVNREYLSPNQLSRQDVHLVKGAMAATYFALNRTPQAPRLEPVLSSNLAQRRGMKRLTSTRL

[13] = tested on: Tyrosine-protein kinase ABL1 (Homo sapiens), P00519 [Q252H]; test: Inhibition of human truncated ABL Q252H mutant expressed in baculovirus assessed as substrate phosphorylation using fluorescence-labelled peptides as substrate at 8 uM after 90 mins by microfluidic peptide phosphorylation assay
[14] = target: T2, Serine/threonine-protein kinase BRSK2 (Homo sapiens) (UniProt Q8IWQ3); test: Inhibition of human truncated BRSK2 expressed in baculovirus assessed as substrate phosphorylation using fluorescence-labelled peptides as substrate at 8 uM after 90 mins by microfluidic peptide phosphorylation assay
T2 sequence (whole entry): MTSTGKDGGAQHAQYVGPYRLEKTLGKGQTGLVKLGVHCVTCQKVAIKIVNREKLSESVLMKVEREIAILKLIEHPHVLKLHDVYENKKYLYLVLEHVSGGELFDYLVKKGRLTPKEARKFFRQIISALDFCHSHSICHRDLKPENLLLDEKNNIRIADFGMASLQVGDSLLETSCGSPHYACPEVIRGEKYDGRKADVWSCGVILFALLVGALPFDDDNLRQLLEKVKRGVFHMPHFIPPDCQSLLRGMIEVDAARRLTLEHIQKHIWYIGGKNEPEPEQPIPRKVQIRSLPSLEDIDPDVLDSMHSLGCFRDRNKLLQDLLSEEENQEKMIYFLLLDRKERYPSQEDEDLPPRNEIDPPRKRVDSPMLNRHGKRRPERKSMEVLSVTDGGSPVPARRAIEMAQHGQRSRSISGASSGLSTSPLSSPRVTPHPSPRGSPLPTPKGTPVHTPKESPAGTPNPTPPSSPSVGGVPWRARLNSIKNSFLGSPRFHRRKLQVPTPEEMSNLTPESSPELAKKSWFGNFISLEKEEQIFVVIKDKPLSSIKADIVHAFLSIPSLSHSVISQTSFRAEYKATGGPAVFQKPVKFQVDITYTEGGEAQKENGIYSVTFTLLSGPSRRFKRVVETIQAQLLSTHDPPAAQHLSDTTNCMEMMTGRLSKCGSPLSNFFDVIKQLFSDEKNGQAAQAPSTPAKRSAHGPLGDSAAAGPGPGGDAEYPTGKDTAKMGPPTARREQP

[15] = target: Tyrosine-protein kinase Fer (Homo sapiens) (UniProt P16591); test: Inhibition of human FER catalytic domain expressed in baculovirus assessed as substrate phosphorylation using fluorescence-labelled peptides as substrate at 1000 uM after 90 mins by microfluidic peptide phosphorylation assay
Tyrosine-protein kinase Fer (Homo sapiens), sequence (P16591 whole entry, looked up, the tested form may be a part): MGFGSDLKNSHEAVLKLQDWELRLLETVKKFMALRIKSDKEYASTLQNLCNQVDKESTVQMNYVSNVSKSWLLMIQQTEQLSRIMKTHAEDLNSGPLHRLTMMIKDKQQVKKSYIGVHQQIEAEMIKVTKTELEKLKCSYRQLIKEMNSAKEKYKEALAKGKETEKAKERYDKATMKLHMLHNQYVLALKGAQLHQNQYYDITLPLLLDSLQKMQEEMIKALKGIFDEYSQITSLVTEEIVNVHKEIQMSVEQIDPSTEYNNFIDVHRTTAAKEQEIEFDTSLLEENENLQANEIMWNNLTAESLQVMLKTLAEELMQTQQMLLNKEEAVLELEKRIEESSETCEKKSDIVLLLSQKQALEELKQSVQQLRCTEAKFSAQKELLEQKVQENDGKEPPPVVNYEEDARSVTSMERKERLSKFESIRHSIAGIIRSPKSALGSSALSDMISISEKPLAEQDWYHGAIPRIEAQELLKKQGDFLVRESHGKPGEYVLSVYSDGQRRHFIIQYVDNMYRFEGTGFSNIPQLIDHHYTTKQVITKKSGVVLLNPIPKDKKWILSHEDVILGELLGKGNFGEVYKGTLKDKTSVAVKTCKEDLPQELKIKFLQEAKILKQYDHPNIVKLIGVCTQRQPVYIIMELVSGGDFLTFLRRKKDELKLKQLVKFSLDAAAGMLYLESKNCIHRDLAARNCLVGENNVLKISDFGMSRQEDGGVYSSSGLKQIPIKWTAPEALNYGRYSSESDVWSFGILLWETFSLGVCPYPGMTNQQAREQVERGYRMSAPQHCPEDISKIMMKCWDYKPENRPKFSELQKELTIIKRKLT

Serine/threonine-protein kinase PAK 2 (Homo sapiens), sequence (Q13177 whole entry, the tested form may be a part, canonical isoform): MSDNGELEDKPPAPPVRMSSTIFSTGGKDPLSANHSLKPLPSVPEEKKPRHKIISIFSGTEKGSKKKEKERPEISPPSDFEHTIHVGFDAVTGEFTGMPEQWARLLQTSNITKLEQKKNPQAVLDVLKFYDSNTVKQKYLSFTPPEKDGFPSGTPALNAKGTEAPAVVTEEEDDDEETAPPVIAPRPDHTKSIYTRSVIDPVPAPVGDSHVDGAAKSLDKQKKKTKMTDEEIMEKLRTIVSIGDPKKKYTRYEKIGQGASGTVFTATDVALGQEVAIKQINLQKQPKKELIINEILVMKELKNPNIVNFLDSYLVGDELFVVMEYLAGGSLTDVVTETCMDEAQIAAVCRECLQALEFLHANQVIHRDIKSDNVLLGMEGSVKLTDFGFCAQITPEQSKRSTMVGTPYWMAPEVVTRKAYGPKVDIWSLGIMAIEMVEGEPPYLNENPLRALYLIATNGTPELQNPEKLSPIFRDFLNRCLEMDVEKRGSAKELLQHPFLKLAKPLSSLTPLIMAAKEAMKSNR

Q: What does the source list for `NC1(Cc2ccc(Cl)cc2)CCN(c2ncnc3[nH]ccc23)CC1`?
A: inhibition [1]: 1.5%; inhibition [2]: 0.5%; inhibition [3]: 0%; inhibition [4]: 30%

Q: `Clc1ccc(C2(c3ccc(-c4ncnc5[nH]cnc45)cc3)CCNCC2)cc1` was tested. Which inhibition [5] did it give?
A: The inhibition was 7.5%.

Q: `C[C@H](CN(C)C)Oc1nc(Nc2cc3cccc(Cl)c3cn2)cnc1C#N` was tested. Which inhibition [6] did it give?
A: The inhibition was 48.5%.

Q: `NCC1CN(c2ncnc3[nH]c4cnccc4c23)CCO1` (stereo not given) was tested. Which inhibition [7] did it give?
A: Its inhibition is 14.5%.

Q: What about the inhibition [8] of the same molecule?
A: Its inhibition is 94%.

Q: Which inhibition [9] does the source give for `CNCc1ccc(-c2ncnc3[nH]cnc23)cc1` here?
A: The inhibition was 16%.

Q: And the inhibition [10]?
A: Its inhibition is 46%.

Q: For `NCCc1ccc(-c2ncnc3[nH]cnc23)cc1`, which inhibition [11] is on record?
A: The inhibition was 89%.

Q: What about the inhibition [12] of the same molecule?
A: Its inhibition is 89%.

Q: What does the source list for `NCC1CCN(c2ncnc3[nH]ccc23)CC1`?
A: inhibition [13]: 87.5%; inhibition [14]: 56.5%

Q: `c1cnc2[nH]ccc2c1` was tested. Which inhibition [15] did it give?
A: Its inhibition is 18%.
